The record followed here is US20260028354A1, “TETRAHYDRONAPHTHALENE DERIVATIVES AS ESTROGEN RECEPTOR DEGRADERS” (REGENT OF THE UNIVERSITY OF MICHIGAN, priority 2022, published 2026).

Usually DC50 stands for the concentration giving 50% degradation.

The assay in a line: Western blot analysis for "B" compounds. It is filed as cell-based. The following applies: read-out: Traditional Western Degradation Potency (DC50). A digest of the protocol: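 Compound-treated cells lysed in RIPA buffer with protease inhibitors; equal protein (BCA) run on 10% SDS-PAGE, transferred to PVDF and probed with target antibodies. Band intensities quantified by densitometry and normalized to GAPDH.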
For orientation: In western blotting, separated proteins are transferred to a membrane and probed.

As to `O=C1CCC(N2C(=O)c3cc4c(cc3C2=O)CN(CC(=O)N2CC3(CCN(c5ccc([C@@H]6c7ccc(O)cc7CC[C@@H]6c6ccccc6)cc5)CC3)C2)CC4)C(=O)N1` (mixture of isomers) [Compound B192, 2-(2,6-dioxopiperidin-3-yl)-6-(2-(7-(4-((1R,2S)-6-hydroxy-2-phenyl-1,2,3,4-tetrahydronaphthalen-1-yl)phenyl)-2,7-diazaspiro[3.5]nonan-2-yl)-2-oxoethyl)-5,6,7,8-tetrahydro-1H-pyrrolo[3,4-g]isoquinoline-1,3(2H)-dione], the DC50 was 10 to 100 nM. As for `O=C1CCC(N2C(=O)c3cc4c(cc3C2=O)CN(CC(=O)N2CCC3(CC2)CCN(c2ccc([C@@H]5c6ccc(O)cc6CC[C@@H]5c5ccc(F)cc5)cc2)CC3)CC4)C(=O)N1` (mixture of isomers) [Compound B193, 2-(2,6-dioxopiperidin-3-yl)-6-(2-(9-(4-((1R,2S)-2-(4-fluorophenyl)-6-hydroxy-1,2,3,4-tetrahydronaphthalen-1-yl)phenyl)-3,9-diazaspiro[5.5]undecan-3-yl)-2-oxoethyl)-5,6,7,8-tetrahydro-1H-pyrrolo[3,4-g]isoquinoline-1,3(2H)-dione], the DC50 was in the range of 10 to 100 nM.

In the case of `O=C1CCC(N2C(=O)c3cc4c(cc3C2=O)CN(CCN2CCC3(CC2)CN(c2ccc([C@@H]5c6ccc(O)cc6CC[C@@H]5c5ccccc5)cc2)C3)C4)C(=O)N1` (mixture of isomers) [Compound B196, 2-(2,6-dioxopiperidin-3-yl)-6-(2-(2-(4-((1R,2S)-6-hydroxy-2-phenyl-1,2,3,4-tetrahydronaphthalen-1-yl)phenyl)-2,7-diazaspiro[3.5]nonan-7-yl)ethyl)-6,7-dihydropyrrolo[3,4-f]isoindole-1,3(2H,5H)-dione], the DC50 was in the range of 10 to 100 nM. Regarding `O=C1CCC(N2C(=O)c3cc4c(cc3C2=O)CN(CCN2CC3(CCN(c5ccc([C@@H]6c7ccc(O)cc7CC[C@@H]6c6ccccc6)cc5)CC3)C2)C4)C(=O)N1` (mixture of isomers) [Compound B197, 2-(2,6-dioxopiperidin-3-yl)-6-(2-(7-(4-((1R,2S)-6-hydroxy-2-phenyl-1,2,3,4-tetrahydronaphthalen-1-yl)phenyl)-2,7-diazaspiro[3.5]nonan-2-yl)ethyl)-6,7-dihydropyrrolo[3,4-f]isoindole-1,3(2H,5H)-dione], the DC50 was 10 to 100 nM. For `O=C1CCC(N2C(=O)c3cc4c(cc3C2=O)CN(CCN2CCC3(CC2)CCN(c2ccc([C@@H]5c6ccc(O)cc6CC[C@@H]5c5ccccc5)cc2)CC3)C4)C(=O)N1` (mixture of isomers) [Compound B198, 2-(2,6-dioxopiperidin-3-yl)-6-(2-(9-(4-((1R,2S)-6-hydroxy-2-phenyl-1,2,3,4-tetrahydronaphthalen-1-yl)phenyl)-3,9-diazaspiro[5.5]undecan-3-yl)ethyl)-6,7-dihydropyrrolo[3,4-f]isoindole-1,3(2H,5H)-dione], the DC50 is 10 to 100 nM. Regarding `O=C1CCC(N2C(=O)c3cc4c(cc3C2=O)CN(CC(=O)N2CCC3(CC2)CN(c2ccc([C@@H]5c6ccc(O)cc6CC[C@@H]5c5ccc(F)cc5Cl)cc2)C3)C4)C(=O)N1` (mixture of isomers) [Compound B259, 6-(2-(2-(4-((1R,2S)-2-(2-chloro-4-fluorophenyl)-6-hydroxy-1,2,3,4-tetrahydronaphthalen-1-yl)phenyl)-2,7-diazaspiro[3.5]nonan-7-yl)-2-oxoethyl)-2-(2,6-dioxopiperidin-3-yl)-6,7-dihydropyrrolo[3,4-f]isoindole-1,3(2H,5H)-dione], the DC50 was in the range of 10 to 100 nM. In the case of `O=C1CCC(N2C(=O)c3cc4c(cc3C2=O)CN(C(=O)CN2CC3(CCN(c5ccc([C@@H]6c7ccc(O)cc7CC[C@@H]6c6ccccc6)cc5)CC3)C2)CCC4)C(=O)N1` (mixture of isomers) [Compound B260, 2-(2,6-dioxopiperidin-3-yl)-6-(2-(7-(4-((1R,2S)-6-hydroxy-2-phenyl-1,2,3,4-tetrahydronaphthalen-1-yl)phenyl)-2,7-diazaspiro[3.5]nonan-2-yl)acetyl)-6,7,8,9-tetrahydroazepino[3,4-f]isoindole-1,3(2H,5H)-dione] it was greater than 100 nM.
